# Assay results published in patent publication US7696129B2, “Substituted aromatic amide derivative, intermediate thereof, agrohorticultural insecticide containing thereof and method for the use thereof” (Nihon Nohyaku Co., Ltd., priority 2001, dated 2010).
# Experiments:
# Format in all cases: in vivo
# [1] = system: Smaller Tea Tortrix (Adxophyes sp.); test: Test Example 3: insecticidal effect on smaller tea tortrix, tea leaf immersion; settings: 50 ppm, tea leaves immersed about 30 seconds, larvae, 25° C., humidity 70%, eight days after the inoculation
# Method: Insecticidal Effect on Smaller Tea Tortrix (Adxophyes sp.)
# Tea leaves were immersed for about 30 seconds in a liquid chemical prepared by diluting a preparation containing each compound listed in Tables 1 to 3 as an active ingredient to adjust the concentration to 50 ppm. After air-dryness, the tea leaves were placed in a plastic Petri dish with a diameter of 9 cm and inoculated with larvae of smaller tea tortrix, after which the dish was allowed to stand in a room thermostatted at 25° C. and having a humidity of 70%. Eight days after the inoculation, the dead and alive were counted and the insecticidal effect was judged according to the criterion shown in Test Example 1. The test was carried out with triplicate groups of 10 insects.
# [2] = system: Common Cutworm (Spodoptera litura); test: Test Example 2: insecticidal effect on common cutworm, cabbage leaf immersion; settings: 50 ppm, cabbage leaf immersed about 30 seconds, second-instar larvae, 25° C., eight days after the inoculation
# Excerpt: Insecticidal Effect on Common Cutworm (Spodoptera litura)
# A piece of cabbage leaf (cultivar; Shikidori) was immersed for about 30 seconds in a liquid chemical prepared by diluting a preparation containing each compound listed in Tables 4 to 9 as an active ingredient to adjust the concentration to 50 ppm. After air-dryness, it was placed in a plastic Petri dish with a diameter of 9 cm and inoculated with second-instar larvae of common cutworm, after which the dish was closed and then allowed to stand in a room thermostatted at 25° C. Eight days after the inoculation, the dead and alive were counted. The mortality was calculated according to the following equation and the insecticidal effect was judged according to the criterion shown in Test Example 1. The test was carried out with triplicate groups of 10 insects.
# [3] = system: Diamond Back Moth (Plutella xylostella); test: Test Example 1: insecticidal effect on diamond back moth, immersion of Chinese cabbage seedling with eggs; settings: 50 ppm, seedling with eggs immersed about 30 seconds, 25° C., six days after the immersion
# Excerpt: Insecticidal Effect on Diamond Back Moth (Plutella xylostella)
# Adult diamond back moths were released and allowed to oviposit on a Chinese cabbage seedling. Two days after the release, the seedling having the eggs deposited thereon was immersed for about 30 seconds in a liquid chemical prepared by diluting a preparation containing each compound listed in Tables 4 to 9 as an active ingredient to adjust the concentration to 50 ppm. After air-dryness, it was allowed to stand in a room thermostatted at 25° C. Six days after the immersion, the hatched insects were counted. The mortality was calculated according to the following equation and the insecticidal effect was judged according to the criterion shown below. The test was carried out with triplicate groups of 10 insects.
SMILES,"Test Example 3 (insecticidal effect, mortality criterion) [1]","Test Example 2 (insecticidal effect, mortality criterion) [2]","Test Example 1 (insecticidal effect, mortality criterion) [3]"
CSCC(C)(C)NC(=O)c1c(I)cccc1C(=O)Nc1ccc(CC(F)(F)F)cc1C [5-1],A (Mortality 100%),A (Mortality 100%),A (Mortality 100%)
CSCC(C)(C)NC(=O)c1c(I)cccc1C(=O)Nc1ccc(CC(F)(F)F)cc1F [5-3],A (Mortality 100%),A (Mortality 100%),A (Mortality 100%)
CSCC(C)(C)NC(=O)c1c(I)cccc1C(=O)Nc1ccc(CC(F)(F)F)cc1Cl [5-4],A (Mortality 100%),A (Mortality 100%),A (Mortality 100%)
CSCC(C)(C)NC(=O)c1c(I)cccc1C(=O)Nc1ccc(CC(F)(F)C(F)(F)F)cc1C [5-5],A (Mortality 100%),A (Mortality 100%),A (Mortality 100%)
CSCC(C)(C)NC(=O)c1c(I)cccc1C(=O)Nc1ccc(CC(F)(F)C(F)(F)F)cc1F [5-6],A (Mortality 100%),A (Mortality 100%),A (Mortality 100%)
CSCC(C)(C)NC(=O)c1c(I)cccc1C(=O)Nc1ccc(CC(F)(F)C(F)(F)C(F)(F)F)cc1C [5-7],A (Mortality 100%),A (Mortality 100%),A (Mortality 100%)
CSCC(C)(C)NC(=O)c1c(I)cccc1C(=O)Nc1ccc(CC(F)(F)C(F)(F)C(F)(F)C(F)(F)C(F)(F)F)cc1CC(F)(F)C(F)(F)C(F)(F)C(F)(F)C(F)(F)F [5-8],A (Mortality 100%),A (Mortality 100%),A (Mortality 100%)
CC(C)NC(=O)c1c(I)cccc1C(=O)Nc1ccc(C(C(F)(F)F)C(F)(F)F)cc1 [5-9],A (Mortality 100%),A (Mortality 100%),A (Mortality 100%)
CSCC(C)(C)NC(=O)c1c(I)cccc1C(=O)Nc1ccc(C(C(F)(F)F)C(F)(F)F)cc1 [5-10],A (Mortality 100%),A (Mortality 100%),A (Mortality 100%)
Cc1cc(C(C(F)(F)F)C(F)(F)F)ccc1NC(=O)c1ccccc1C(=O)NC(C)C [5-11],A (Mortality 100%),E (Mortality 49% or less),A (Mortality 100%)
CON=CC(C)(C)NC(=O)c1ccccc1C(=O)Nc1ccc(C(C(F)(F)F)C(F)(F)F)cc1C [5-12],A (Mortality 100%),E (Mortality 49% or less),A (Mortality 100%)
CSCC(C)(C)NC(=O)c1ccccc1C(=O)Nc1ccc(C(C(F)(F)F)C(F)(F)F)cc1C [5-13],E (Mortality 49% or less),E (Mortality 49% or less),A (Mortality 100%)
Cc1cc(C(C(F)(F)F)C(F)(F)F)ccc1NC(=O)c1cccc([N+](=O)[O-])c1C(=O)NC(C)C [5-14],A (Mortality 100%),A (Mortality 100%),A (Mortality 100%)
CSCC(C)(C)NC(=O)c1c(C(=O)Nc2ccc(C(C(F)(F)F)C(F)(F)F)cc2C)cccc1[N+](=O)[O-] [5-15],A (Mortality 100%),A (Mortality 100%),A (Mortality 100%)
CSCC(C)(C)NC(=O)c1c(F)cccc1C(=O)Nc1ccc(C(C(F)(F)F)C(F)(F)F)cc1C [5-16],A (Mortality 100%),A (Mortality 100%),A (Mortality 100%)
Cc1cc(C(C(F)(F)F)C(F)(F)F)ccc1NC(=O)c1cccc(Cl)c1C(=O)NC(C)C [5-17],A (Mortality 100%),A (Mortality 100%),A (Mortality 100%)
CON=CC(C)(C)NC(=O)c1c(Cl)cccc1C(=O)Nc1ccc(C(C(F)(F)F)C(F)(F)F)cc1C [5-18],A (Mortality 100%),A (Mortality 100%),A (Mortality 100%)
CSCC(C)(C)NC(=O)c1c(Cl)cccc1C(=O)Nc1ccc(C(C(F)(F)F)C(F)(F)F)cc1C [5-19],A (Mortality 100%),A (Mortality 100%),A (Mortality 100%)
CON=CC(C)(C)NC(=O)c1c(Br)cccc1C(=O)Nc1ccc(C(C(F)(F)F)C(F)(F)F)cc1C [5-20],A (Mortality 100%),A (Mortality 100%),A (Mortality 100%)
Cc1cc(C(C(F)(F)F)C(F)(F)F)ccc1NC(=O)c1cccc(I)c1C(=O)NC(C)C [5-21],A (Mortality 100%),A (Mortality 100%),A (Mortality 100%)
Cc1cc(C(C(F)(F)F)C(F)(F)F)ccc1NC(=O)c1cccc(I)c1C(=O)NC(C)(C)C [5-22],A (Mortality 100%),C (Mortality 89-80%),A (Mortality 100%)
Cc1cc(C(C(F)(F)F)C(F)(F)F)ccc1NC(=O)c1cccc(I)c1C(=O)NC(C)(C)CC(C)(C)C [5-23],A (Mortality 100%),,A (Mortality 100%)
C#CC(C)(C)NC(=O)c1c(I)cccc1C(=O)Nc1ccc(C(C(F)(F)F)C(F)(F)F)cc1C [5-24],A (Mortality 100%),C (Mortality 89-80%),A (Mortality 100%)
CCOC(=O)C=CC(C)(C)NC(=O)c1c(I)cccc1C(=O)Nc1ccc(C(C(F)(F)F)C(F)(F)F)cc1C [5-25],A (Mortality 100%),A (Mortality 100%),A (Mortality 100%)
CON=CC(C)(C)NC(=O)c1c(I)cccc1C(=O)Nc1ccc(C(C(F)(F)F)C(F)(F)F)cc1C [5-26],A (Mortality 100%),C (Mortality 89-80%),A (Mortality 100%)
